Values quoted from earlier work as cited in patent US9655859B2, “Accordion pill comprising levodopa for an improved treatment of Parkinson's disease symptoms” (INTEC PHARMA LTD., priority 2010, dated 2017).

Target: T1, peripheral DOPA decarboxylase (Homo sapiens, UniProt P20711)
T1 construct: host or cells: endogenous enzyme of peripheral tissues in vivo
T1 sequence (P20711 1-480): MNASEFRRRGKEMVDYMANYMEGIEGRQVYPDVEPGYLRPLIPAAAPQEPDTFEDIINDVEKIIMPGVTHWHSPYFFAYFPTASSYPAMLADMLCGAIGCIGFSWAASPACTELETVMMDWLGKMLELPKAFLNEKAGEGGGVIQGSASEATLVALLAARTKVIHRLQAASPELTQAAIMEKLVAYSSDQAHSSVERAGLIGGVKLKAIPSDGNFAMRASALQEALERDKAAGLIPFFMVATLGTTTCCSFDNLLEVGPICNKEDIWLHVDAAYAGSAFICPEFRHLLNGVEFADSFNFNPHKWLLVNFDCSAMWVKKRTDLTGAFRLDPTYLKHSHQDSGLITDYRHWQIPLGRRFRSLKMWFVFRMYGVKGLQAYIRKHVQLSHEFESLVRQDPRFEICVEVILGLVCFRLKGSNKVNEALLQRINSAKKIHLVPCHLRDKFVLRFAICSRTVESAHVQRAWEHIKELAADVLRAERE
Settings: studies cited

Question: Which “carbidopa amount saturating peripheral DOPA decarboxylase” value does the source give for `C[C@@](Cc1ccc(O)c(O)c1)(NN)C(=O)O` [carbidopa] here?
Answer: 70 to 100 mg a day
